In ChEMBL document CHEMBL1201862, “PubChem BioAssay data set” (2004):
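Each compound was tested at five concentrations against cells in 96-well plates for 48 hours. Abbreviation: GI50, concentration required for 50% inhibition of growth.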 Activity calls are given as the source filed them. No stated cut-off is given here; in the data, active = GI50 up to about 1.1 µM and inactive = higher.

What was measured:
Assay in all cases: DTP human tumour cell line panel, 48 h
786-0 = system: 786-0
A498 = system: A498
A549 = system: A549
ACHN = system: ACHN
BT-549 = system: BT-549
CAKI-1 = system: CAKI-1
CCRF-CEM = system: CCRF-CEM
COLO 205 = system: COLO 205
DU-145 = system: DU-145
EKVX = system: EKVX
HCC 2998 = system: HCC 2998
HCT-116 = system: HCT-116
HCT-15 = system: HCT-15
HL-60 = system: HL-60
HOP-62 = system: HOP-62
HT-29 = system: HT-29
Hs-578T = system: Hs-578T
IGROV-1 = system: IGROV-1
K562 = system: K562
KM12 = system: KM12
LOX IMVI = system: LOX IMVI
M14 = system: M14
MCF7 = system: MCF7
MDA-MB-231 = system: MDA-MB-231
MDA-MB-435 = system: MDA-MB-435
MDA-N = system: MDA-N
MOLT-4 = system: MOLT-4
Malme-3M = system: Malme-3M
NCI-H226 = system: NCI-H226
NCI-H23 = system: NCI-H23
NCI-H460 = system: NCI-H460
NCI-H522 = system: NCI-H522
NCI/ADR-RES = system: NCI/ADR-RES
OVCAR-3 = system: OVCAR-3
OVCAR-4 = system: OVCAR-4
OVCAR-5 = system: OVCAR-5
OVCAR-8 = system: OVCAR-8
PC-3 = system: PC-3
RPMI-8226 = system: RPMI-8226
RXF 393 = system: RXF 393
SF-268 = system: SF-268
SF-295 = system: SF-295
SK-MEL-28 = system: SK-MEL-28
SK-MEL-2 = system: SK-MEL-2
SK-MEL-5 = system: SK-MEL-5
SK-OV-3 = system: SK-OV-3
SN12C = system: SN12C
SNB-19 = system: SNB-19
SNB-75 = system: SNB-75
SR = system: SR
SW-620 = system: SW-620
T47D = system: T47D
U-251 = system: U-251
UACC-257 = system: UACC-257
UACC-62 = system: UACC-62
UO-31 = system: UO-31
HOP-92 = system: HOP-92
SF-539 = system: SF-539
TK-10 = system: TK-10

SMILES: COc1ccc(-n2nnc(C(N)=O)c2O)cc1
- GI50 (786-0): > 100 µM (inactive)
- GI50 (A498): > 100 µM (inactive)
- GI50 (A549): > 100 µM (inactive)
- GI50 (ACHN): > 100 µM (inactive)
- GI50 (BT-549): > 100 µM (inactive)
- GI50 (CAKI-1): > 100 µM (inactive)
- GI50 (CCRF-CEM): > 100 µM (inactive)
- GI50 (COLO 205): > 100 µM (inactive)
- GI50 (DU-145): > 100 µM (inactive)
- GI50 (EKVX): > 100 µM (inactive)
- GI50 (HCC 2998): > 100 µM (inactive)
- GI50 (HCT-116): > 100 µM (inactive)
- GI50 (HCT-15): > 100 µM
- GI50 (HL-60): > 100 µM (inactive)
- GI50 (HOP-62): > 100 µM (inactive)
- GI50 (HT-29): > 100 µM (inactive)
- GI50 (Hs-578T): > 100 µM (inactive)
- GI50 (IGROV-1): > 100 µM (inactive)
- GI50 (K562): > 100 µM (inactive)
- GI50 (KM12): > 100 µM (inactive)
- GI50 (LOX IMVI): > 100 µM (inactive)
- GI50 (M14): > 100 µM (inactive)
- GI50 (MCF7): > 100 µM (inactive)
- GI50 (MDA-MB-231): > 100 µM (inactive)
- GI50 (MDA-MB-435): > 100 µM (inactive)
- GI50 (MDA-N): > 100 µM (inactive)
- GI50 (MOLT-4): > 100 µM (inactive)
- GI50 (Malme-3M): 91 µM (inactive)
- GI50 (NCI-H226): > 100 µM (inactive)
- GI50 (NCI-H23): > 100 µM (inactive)
- GI50 (NCI-H460): > 100 µM (inactive)
- GI50 (NCI-H522): > 100 µM (inactive)
- GI50 (NCI/ADR-RES): > 100 µM (inactive)
- GI50 (OVCAR-3): 0.0187 µM (active)
- GI50 (OVCAR-4): > 100 µM (inactive)
- GI50 (OVCAR-5): > 100 µM (inactive)
- GI50 (OVCAR-8): > 100 µM (inactive)
- GI50 (PC-3): > 100 µM (inactive)
- GI50 (RPMI-8226): > 100 µM (inactive)
- GI50 (RXF 393): > 100 µM (inactive)
- GI50 (SF-268): > 100 µM (inactive)
- GI50 (SF-295): > 100 µM (inactive)
- GI50 (SK-MEL-28): > 100 µM (inactive)
- GI50 (SK-MEL-2): > 100 µM (inactive)
- GI50 (SK-MEL-5): > 100 µM (inactive)
- GI50 (SK-OV-3): > 100 µM (inactive)
- GI50 (SN12C): > 100 µM (inactive)
- GI50 (SNB-19): > 100 µM (inactive)
- GI50 (SNB-75): > 100 µM (inactive)
- GI50 (SR): > 100 µM (inactive)
- GI50 (SW-620): > 100 µM (inactive)
- GI50 (T47D): > 100 µM (inactive)
- GI50 (U-251): > 100 µM (inactive)
- GI50 (UACC-257): > 100 µM (inactive)
- GI50 (UACC-62): > 100 µM (inactive)
- GI50 (UO-31): 32.3 µM (inactive)

SMILES: C/C(=C/CC[C@](C)(OC1OC(CO)C(O)C(O)C1O)[C@H]1CC[C@]2(C)[C@@H]1CC[C@@H]1[C@@]3(C)CC[C@H](O)C(C)(C)[C@@H]3C[C@H](O)[C@]12C)CO (some centres undefined)
- GI50 (786-0): 12.6 µM (inactive)
- GI50 (A498): 60 µM (inactive)
- GI50 (A549): 39.5 µM (inactive)
- GI50 (ACHN): 40.6 µM (inactive)
- GI50 (BT-549): 12.5 µM (inactive)
- GI50 (CAKI-1): 31.7 µM (inactive)
- GI50 (CCRF-CEM): 27.9 µM (inactive)
- GI50 (COLO 205): 21.3 µM (inactive)
- GI50 (DU-145): 85.7 µM (inactive)
- GI50 (EKVX): 60.8 µM (inactive)
- GI50 (HCT-116): 18.2 µM (inactive)
- GI50 (HCT-15): 18.1 µM
- GI50 (HL-60): 16.5 µM (inactive)
- GI50 (HOP-62): 26.3 µM (inactive)
- GI50 (HOP-92): 27.4 µM (inactive)
- GI50 (HT-29): 11.6 µM (inactive)
- GI50 (Hs-578T): 16.2 µM (inactive)
- GI50 (IGROV-1): 38 µM (inactive)
- GI50 (K562): 13.4 µM (inactive)
- GI50 (KM12): 22.7 µM (inactive)
- GI50 (LOX IMVI): 18.1 µM (inactive)
- GI50 (M14): 37.5 µM (inactive)
- GI50 (MCF7): 34.8 µM (inactive)
- GI50 (MDA-MB-231): 31.3 µM (inactive)
- GI50 (MDA-MB-435): 36 µM (inactive)
- GI50 (MDA-N): 24.2 µM (inactive)
- GI50 (MOLT-4): 12.2 µM (inactive)
- GI50 (Malme-3M): 21.6 µM (inactive)
- GI50 (NCI-H226): 26.8 µM (inactive)
- GI50 (NCI-H23): 45.1 µM (inactive)
- GI50 (NCI-H460): 16.8 µM (inactive)
- GI50 (NCI-H522): 17.9 µM (inactive)
- GI50 (NCI/ADR-RES): 47.4 µM (inactive)
- GI50 (OVCAR-3): 24.2 µM (inactive)
- GI50 (OVCAR-4): 51.9 µM (inactive)
- GI50 (OVCAR-5): 49.8 µM (inactive)
- GI50 (OVCAR-8): 33.3 µM (inactive)
- GI50 (PC-3): 31.5 µM (inactive)
- GI50 (RPMI-8226): 5.4 µM (inactive)
- GI50 (RXF 393): 3.46 µM (inactive)
- GI50 (SF-268): 21.8 µM (inactive)
- GI50 (SF-295): 14.8 µM (inactive)
- GI50 (SF-539): 10.4 µM (inactive)
- GI50 (SK-MEL-28): 18.2 µM (inactive)
- GI50 (SK-MEL-5): 18.2 µM (inactive)
- GI50 (SK-OV-3): 21.9 µM (inactive)
- GI50 (SN12C): 22 µM (inactive)
- GI50 (SNB-19): 22 µM (inactive)
- GI50 (SNB-75): 8.43 µM (inactive)
- GI50 (SR): 22.2 µM (inactive)
- GI50 (SW-620): 27.4 µM (inactive)
- GI50 (T47D): 16.9 µM (inactive)
- GI50 (TK-10): 55.7 µM (inactive)
- GI50 (U-251): 13.6 µM (inactive)
- GI50 (UACC-257): 22.6 µM (inactive)
- GI50 (UACC-62): 19.1 µM (inactive)
- GI50 (UO-31): 37.9 µM (inactive)

SMILES: CCOC(=O)c1c(N2CCCC2)[nH]c(=O)c(C(c2c(O)c(C(=O)OCC)c(N3CCCC3)[nH]c2=O)C(C)C)c1O
- GI50 (786-0): 61.8 µM (inactive)
- GI50 (A498): > 100 µM (inactive)
- GI50 (A549): > 100 µM (inactive)
- GI50 (ACHN): > 100 µM (inactive)
- GI50 (BT-549): 32.4 µM (inactive)
- GI50 (CAKI-1): 48 µM (inactive)
- GI50 (CCRF-CEM): > 100 µM (inactive)
- GI50 (COLO 205): > 100 µM (inactive)
- GI50 (DU-145): > 100 µM (inactive)
- GI50 (EKVX): > 100 µM (inactive)
- GI50 (HCC 2998): 52.8 µM (inactive)
- GI50 (HCT-116): > 100 µM (inactive)
- GI50 (HCT-15): > 100 µM
- GI50 (HOP-62): 94.4 µM (inactive)
- GI50 (HOP-92): 28.7 µM (inactive)
- GI50 (HT-29): > 100 µM (inactive)
- GI50 (Hs-578T): 42.1 µM (inactive)
- GI50 (K562): > 100 µM (inactive)
- GI50 (KM12): > 100 µM (inactive)
- GI50 (LOX IMVI): > 100 µM (inactive)
- GI50 (M14): > 100 µM (inactive)
- GI50 (MCF7): > 100 µM (inactive)
- GI50 (MDA-MB-231): 21.7 µM (inactive)
- GI50 (MDA-MB-435): > 100 µM (inactive)
- GI50 (MDA-N): > 100 µM (inactive)
- GI50 (MOLT-4): > 100 µM (inactive)
- GI50 (Malme-3M): > 100 µM (inactive)
- GI50 (NCI-H226): > 100 µM (inactive)
- GI50 (NCI-H23): 71.1 µM (inactive)
- GI50 (NCI-H460): > 100 µM (inactive)
- GI50 (NCI-H522): 43.5 µM (inactive)
- GI50 (NCI/ADR-RES): > 100 µM (inactive)
- GI50 (OVCAR-3): > 100 µM (inactive)
- GI50 (OVCAR-4): > 100 µM (inactive)
- GI50 (OVCAR-5): 33.2 µM (inactive)
- GI50 (OVCAR-8): > 100 µM (inactive)
- GI50 (PC-3): 33.6 µM (inactive)
- GI50 (RPMI-8226): > 100 µM (inactive)
- GI50 (RXF 393): 43 µM (inactive)
- GI50 (SF-268): 72.4 µM (inactive)
- GI50 (SF-295): > 100 µM (inactive)
- GI50 (SF-539): > 100 µM (inactive)
- GI50 (SK-MEL-28): > 100 µM (inactive)
- GI50 (SK-MEL-5): > 100 µM (inactive)
- GI50 (SK-OV-3): > 100 µM (inactive)
- GI50 (SN12C): > 100 µM (inactive)
- GI50 (SNB-19): 70.6 µM (inactive)
- GI50 (SNB-75): 25.3 µM (inactive)
- GI50 (SR): 37.5 µM (inactive)
- GI50 (SW-620): > 100 µM (inactive)
- GI50 (T47D): > 100 µM (inactive)
- GI50 (TK-10): 42.4 µM (inactive)
- GI50 (U-251): 37.8 µM (inactive)
- GI50 (UACC-257): > 100 µM (inactive)
- GI50 (UACC-62): > 100 µM (inactive)
- GI50 (UO-31): > 100 µM (inactive)
